Data on 34 compounds can be found in US8592629B2, “Sulfonamide derivatives as Nav 1.7 inhibitors” (Pfizer Limited, priority 2010, dated 2013).

The target of assay [1] is T1, Nav1.7 (or SCN9A) channel (Homo sapiens, UniProt Q15858).
T1 construct: expressed in transfected cells
Kind of assay: Nav1.7 (hSCN9A) block in HEK cells, PatchXpress 7000 automated electrophysiology, estimated IC50 (EIC50). It is filed as cell-based. The note with it: PatchXpress assay; HEK cells stably transfected with hSCN9A, voltage-clamped at V1/2 of inactivation. In a few lines:
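Stable hSCN9A HEK cells voltage-clamped at empirically determined inactivation V1/2 (8 s prepulse), current activated by 20 msec step to 0 mV; % inhibition from current before vs after compound. EIC50 derived from single-point data as concentration × (100−%inhibition)/%inhibition, excluding <20% and >80% inhibition; PatchXpress unless stated.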

The target in assay [2] is T1, Nav1.7 (or SCN9A) channel. The experiment in a line: Nav1.7 (hSCN9A) block in HEK cells, Ionworks Quattro automated electrophysiology. The format is cell-based. As to conditions: Ionworks Quattro assay (IW); HEK cells stably transfected with hSCN9A; read-out: Nav1.7 EIC50 (IW). How it is done:
The ability of the compounds of formula (I) to block the Nav1.7 (or SCN9A) channel were measured using the assay described below.
Human Embryonic Kidney (HEK) cells were transfected with an hSCN9A construct using lipofectamine reagent (Invitrogen), using standard techniques. Cells stably expressing the hSCN9A constructs were identified by their resistance to G-418 (400 μg/ml). Clones were screened for expression using the whole-cell voltage-clamp technique.
HEK cells stably transfected with hSCN9A were maintained in DMEM medium supplemented with 10% heat-inactivated fetal bovine serum and 400 μg/ml G-418 in an incubator at 37° C. with a humidified atmosphere of 10% CO2. For HTS, cells were harvested from flasks by trypsinization and replated in an appropriate multi-well plate (typically 96 or 384 wells/plate) such that confluence would be achieved within 24 hours of plating. For electrophysiological studies, cells were removed from the culture flask by brief trypsinization and re-plated at low density onto glass cover slips. Cells were typically used for electrophysiological experiments within 24 to 72 hours after plating.
Electrophysiological assays were also conducted using the lonworks Quattro automated electrophysiological platform (Molecular Devices Corp). Intracellular and extracellular solutions were as described above with the following changes, 120 μg/ml amphotericin was added to the intracellular solution to perforate the membrane and allow electrical access to the cells. hSCN9A cells were grown and harvested as for PatchXpress and cells were resuspended in extracellular solution at a concentration of 1×10^6 cells/ml. The onboard liquid handling facility of the Ionworks Quattro was used for dispensing cells and application of test compounds. A voltage protocol was then applied that comprised of a voltage step to fully inactivate the sodium channels, followed by a brief hyperpolarized recovery period to allow partial recovery from inactivation for unblocked sodium channels, followed by a test depolarized voltage step to assess magnitude of inhibition by test compound. Compound effect was determined based on current amplitude difference between the pre-compound addition and post-compound addition scans.
Compounds of the Examples were tested in the assays described above and found to have the Nav1.7 EIC50 (μM) values specified in the table below. All data are derived from the PatchXpress assay unless explicitly stated otherwise.
In general terms: In patch-clamp work, channel activity is measured electrically.

T1 sequence (Q15858 whole entry): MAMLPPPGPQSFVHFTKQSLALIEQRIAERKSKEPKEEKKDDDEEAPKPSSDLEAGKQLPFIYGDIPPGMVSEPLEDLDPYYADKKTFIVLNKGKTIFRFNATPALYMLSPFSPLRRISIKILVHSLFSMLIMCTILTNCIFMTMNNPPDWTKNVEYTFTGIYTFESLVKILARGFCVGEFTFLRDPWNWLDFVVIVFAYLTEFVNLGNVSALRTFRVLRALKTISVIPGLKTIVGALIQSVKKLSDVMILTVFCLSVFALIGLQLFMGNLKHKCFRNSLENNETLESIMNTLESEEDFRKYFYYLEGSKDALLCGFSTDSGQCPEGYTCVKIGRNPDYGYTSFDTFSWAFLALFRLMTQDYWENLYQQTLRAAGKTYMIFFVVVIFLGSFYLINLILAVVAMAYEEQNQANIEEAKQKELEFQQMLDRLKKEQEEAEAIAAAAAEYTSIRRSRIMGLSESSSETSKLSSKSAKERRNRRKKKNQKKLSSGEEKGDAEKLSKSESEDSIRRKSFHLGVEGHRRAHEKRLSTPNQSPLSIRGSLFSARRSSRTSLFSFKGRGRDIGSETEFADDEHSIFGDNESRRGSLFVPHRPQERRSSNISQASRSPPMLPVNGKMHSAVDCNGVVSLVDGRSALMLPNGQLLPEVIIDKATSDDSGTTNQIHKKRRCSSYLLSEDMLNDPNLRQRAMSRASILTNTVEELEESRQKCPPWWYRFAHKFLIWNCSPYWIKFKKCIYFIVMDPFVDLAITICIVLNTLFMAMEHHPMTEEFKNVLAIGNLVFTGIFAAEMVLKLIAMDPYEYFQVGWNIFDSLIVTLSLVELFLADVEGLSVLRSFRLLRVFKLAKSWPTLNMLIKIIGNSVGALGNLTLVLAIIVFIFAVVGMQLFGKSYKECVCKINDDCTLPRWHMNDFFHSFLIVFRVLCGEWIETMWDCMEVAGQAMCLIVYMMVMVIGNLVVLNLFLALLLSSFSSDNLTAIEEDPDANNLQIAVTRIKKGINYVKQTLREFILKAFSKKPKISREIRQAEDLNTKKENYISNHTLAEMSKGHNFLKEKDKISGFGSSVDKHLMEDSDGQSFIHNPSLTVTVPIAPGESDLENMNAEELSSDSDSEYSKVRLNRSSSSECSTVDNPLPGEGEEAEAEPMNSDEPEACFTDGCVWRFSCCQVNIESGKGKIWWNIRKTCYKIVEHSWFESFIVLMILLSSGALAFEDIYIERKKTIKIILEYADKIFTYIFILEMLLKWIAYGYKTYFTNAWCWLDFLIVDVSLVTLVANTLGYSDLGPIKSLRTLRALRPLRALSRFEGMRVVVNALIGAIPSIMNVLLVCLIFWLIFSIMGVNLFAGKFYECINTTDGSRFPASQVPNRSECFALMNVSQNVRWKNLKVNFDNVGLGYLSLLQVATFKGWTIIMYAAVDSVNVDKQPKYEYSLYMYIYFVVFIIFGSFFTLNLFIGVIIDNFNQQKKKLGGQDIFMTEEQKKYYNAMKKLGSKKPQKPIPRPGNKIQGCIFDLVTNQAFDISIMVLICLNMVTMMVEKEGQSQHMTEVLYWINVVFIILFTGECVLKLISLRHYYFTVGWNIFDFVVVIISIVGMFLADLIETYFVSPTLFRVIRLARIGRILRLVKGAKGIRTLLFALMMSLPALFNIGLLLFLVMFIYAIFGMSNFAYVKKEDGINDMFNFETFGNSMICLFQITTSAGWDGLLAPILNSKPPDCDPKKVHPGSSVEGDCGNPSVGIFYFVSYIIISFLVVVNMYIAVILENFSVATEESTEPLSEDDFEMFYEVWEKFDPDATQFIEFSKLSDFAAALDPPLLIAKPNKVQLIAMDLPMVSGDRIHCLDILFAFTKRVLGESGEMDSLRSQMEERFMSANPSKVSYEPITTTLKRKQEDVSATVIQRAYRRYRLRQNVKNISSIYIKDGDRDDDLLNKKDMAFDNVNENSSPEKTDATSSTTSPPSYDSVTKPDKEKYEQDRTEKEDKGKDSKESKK

For the compound `CS(=O)(=O)NC(=O)c1cc(F)c(Oc2cnc(N3CCCC3)c(Cl)c2)cc1F` [Example 146, 4-[(5-chloro-6-pyrrolidin-1-ylpyridin-3-yl)oxy]-2,5-difluoro-N-(methylsulfonyl)benzamide], in assay [1], the IC50 is 0.076 µM. Take `CCN(CC)c1ncc(Oc2cc(F)c(C(=O)NS(C)(=O)=O)cc2F)cc1Cl` [Example 150, 4-{[5-chloro-6-(diethylamino)pyridin-3-yl]oxy}-2,5-difluoro-N-(methylsulfonyl)benzamide]: the IC50 in assay [1] is 0.22 µM. `CCc1cn2nc(Oc3cc(F)c(C(=O)NS(C)(=O)=O)cc3F)ccc2n1` [Example 180, 4-[(2-ethylimidazo[1,2-b]pyridazin-6-yl)oxy]-2,5-difluoro-N-(methylsulfonyl)benzamide]: in assay [2], the IC50 was found to be 232 µM. In the case of `CS(=O)(=O)NC(=O)c1cc(F)c(Oc2ncccc2C(F)(F)F)cc1F` [Example 182, 2,5-difluoro-N-(methylsulfonyl)-4-{[3-(trifluoromethyl)pyridin-2-yl]oxy}benzamide], in assay [1], the IC50 was greater than 3 µM. For `Cc1cc(Oc2cc(F)c(C(=O)NS(C)(=O)=O)cc2F)nc(C)n1` [Example 183, 4-[(2,6-dimethylpyrimidin-4-yl)oxy]-2,5-difluoro-N-(methylsulfonyl)benzamide], the IC50 in assay [2] is greater than 323 µM.

For the compound `CS(=O)(=O)NC(=O)c1cc(F)c(Oc2ccc(Cl)cn2)cc1F` [Example 184, 4-[(5-chloropyridin-2-yl)oxy]-2,5-difluoro-N-(methylsulfonyl)benzamide], the IC50 in assay [1] was 4.4 µM. For `Cc1cc(C#N)nc(Oc2cc(F)c(C(=O)NS(C)(=O)=O)cc2F)c1` [Example 185, 4-[(6-cyano-4-methylpyridin-2-yl)oxy]-2,5-difluoro-N-(methylsulfonyl)benzamide], in assay [2], the IC50 was greater than 323 µM.

As for `Cc1cc(N(C)C)nc(Oc2cc(F)c(C(=O)NS(C)(=O)=O)cc2F)n1` [Example 186, 4-{[4-(dimethylamino)-6-methylpyrimidin-2-yl]oxy}-2,5-difluoro-N-(methylsulfonyl)benzamide], the IC50 in assay [2] was greater than 323 µM. Regarding `Cc1nc2ccccc2nc1Oc1cc(F)c(C(=O)NS(C)(=O)=O)cc1F` [Example 187, 2,5-difluoro-4-[(3-methylquinoxalin-2-yl)oxy]-N-(methylsulfonyl)benzamide], the IC50 in assay [1] is greater than 3 µM.

`Cc1nccnc1Oc1cc(F)c(C(=O)NS(C)(=O)=O)cc1F` [Example 189, 2,5-difluoro-4-[(3-methylpyrazin-2-yl)oxy]-N-(methylsulfonyl)benzamide]: the IC50 in assay [2] is 232 µM. Same read-out and setting: the figure for `COc1ccc2nc(Oc3cc(F)c(C(=O)NS(C)(=O)=O)cc3F)ccc2c1` [Example 190, 2,5-difluoro-4-[(6-methoxyquinolin-2-yl)oxy]-N-(methylsulfonyl)benzamide] is 29.3 µM.

For the compound `CC(C)c1nccnc1Oc1cc(F)c(C(=O)NS(C)(=O)=O)cc1F` [Example 193, 2,5-difluoro-4-[(3-isopropylpyrazin-2-yl)oxy]-N-(methylsulfonyl)benzamide], the IC50 in assay [1] is 2.1 µM.

`CS(=O)(=O)NC(=O)c1cc(F)c(Oc2ccc(C(F)(F)F)cn2)cc1F` [Example 194, 2,5-difluoro-N-(methylsulfonyl)-4-{[5-(trifluoromethyl)pyridin-2-yl]oxy}benzamide]: the IC50 in assay [1] was 3.1 µM. Turning to `CS(=O)(=O)NC(=O)c1cc(F)c(Oc2nncc3ccccc23)cc1F` [Example 195, 2,5-difluoro-N-(methylsulfonyl)-4-(phthalazin-1-yloxy)benzamide], in assay [2], the IC50 was greater than 323 µM. In the case of `Cc1cc2ccccc2nc1Oc1cc(F)c(C(=O)NS(C)(=O)=O)cc1F` [Example 196, 2,5-difluoro-4-[(3-methylquinolin-2-yl)oxy]-N-(methylsulfonyl)benzamide], in assay [1], the IC50 was greater than 3 µM. In the case of `CCCc1ncc(F)c(Oc2cc(F)c(C(=O)NS(C)(=O)=O)cc2F)n1` [Example 197, 2,5-difluoro-4-[(5-fluoro-2-propylpyrimidin-4-yl)oxy]-N-(methylsulfonyl)benzamide], the IC50 in assay [2] is greater than 323 µM.

Take `CS(=O)(=O)NC(=O)c1cc(F)c(Oc2ncc(Cl)cn2)cc1F` [Example 198, 4-[(5-chloropyrimidin-2-yl)oxy]-2,5-difluoro-N-(methylsulfonyl)benzamide]: in assay [2], the IC50 was greater than 323 µM. For the compound `Cc1cc(Oc2cc(F)c(C(=O)NS(C)(=O)=O)cc2F)ncn1` [Example 199, 2,5-difluoro-4-[(6-methylpyrimidin-4-yl)oxy]-N-(methylsulfonyl)benzamide], the IC50 in assay [2] was greater than 323 µM. With `COc1cc(Oc2cc(F)c(C(=O)NS(C)(=O)=O)cc2F)ncn1` [Example 200, 2,5-difluoro-4-[(6-methoxypyrimidin-4-yl)oxy]-N-(methylsulfonyl)benzamide], the IC50 in assay [2] came out at 173 µM. Regarding `CS(=O)(=O)NC(=O)c1ccc(Oc2ccc3ccccc3n2)c(C#N)c1` [Example L34, 3-cyano-N-(methylsulfonyl)-4-(quinolin-2-yloxy)benzamide], the IC50 in assay [2] is 222 µM.

`CS(=O)(=O)NC(=O)c1ccc(Oc2cnc3ccccc3c2)c(C#N)c1` [Example L35, 3-cyano-N-(methylsulfonyl)-4-(quinolin-3-yloxy)benzamide]: the IC50 in assay [2] turned out to be 50.2 µM. Still for that read-out and setting: the figure for `CS(=O)(=O)NC(=O)c1ccc(Oc2nccc3ccccc23)c(Cl)c1` [Example L36, 3-chloro-4-(isoquinolin-1-yloxy)-N-(methylsulfonyl)benzamide] is greater than 323 µM; for `CS(=O)(=O)NC(=O)c1ccc(Oc2cncc3ccccc23)c(C#N)c1` [Example L37, 3-cyano-4-(isoquinolin-4-yloxy)-N-(methylsulfonyl)benzamide] it is greater than 323 µM; for `CS(=O)(=O)NC(=O)c1cc(Cl)c(Oc2nccc3ccccc23)cc1F` [Example L38, 5-chloro-2-fluoro-4-(isoquinolin-1-yloxy)-N-(methylsulfonyl)benzamide] it is greater than 323 µM.

As for `CS(=O)(=O)NC(=O)c1ccc(Oc2cc3ccccc3cn2)c(C#N)c1` [Example L43, 3-cyano-4-(isoquinolin-3-yloxy)-N-(methylsulfonyl)benzamide], the IC50 in assay [2] is 41 µM. In the case of `Cn1cnc2cccc(Oc3cc(F)c(C(=O)NS(C)(=O)=O)cc3Cl)c21` [Example L44, 5-chloro-2-fluoro-4-[(1-methyl-1H-benzimidazol-7-yl)oxy]-N-(methylsulfonyl)benzamide], the IC50 in assay [2] is greater than 323 µM. On the same count and under the same terms, the figure for `COc1c(C(=O)NS(C)(=O)=O)ccc(Oc2ccc(Oc3ccc(F)cc3)nc2)c1F` [Example L47, 3-fluoro-4-{[6-(4-fluorophenoxy)pyridin-3-yl]oxy}-2-methoxy-N-(methylsulfonyl)benzamide] is 121 µM; for `CCCc1ccc(Oc2ccc(C(=O)NS(C)(=O)=O)cc2F)cn1` [Example L48, 3-fluoro-N-(methylsulfonyl)-4-[(6-propylpyridin-3-yl)oxy]benzamide] it is 38.5 µM. As for `Cc1ccc(Oc2ccc(C(=O)NS(C)(=O)=O)cc2F)cn1` [Example L51, 3-fluoro-4-[(6-methylpyridin-3-yl)oxy]-N-(methylsulfonyl)benzamide], the IC50 in assay [2] stood at 300 µM. Take `CCc1ccc(Oc2ccc(C(=O)NS(C)(=O)=O)c(C)c2)cn1` [Example L55, 4-[(6-ethylpyridin-3-yl)oxy]-2-methyl-N-(methylsulfonyl)benzamide]: the IC50 in assay [2] was found to be 300 µM. For `Cc1ncc(Oc2ccc(C(=O)NS(C)(=O)=O)cc2Cl)cn1` [Example L58, 3-chloro-4-[(2-methylpyrimidin-5-yl)oxy]-N-(methylsulfonyl)benzamide], the IC50 in assay [2] is 216 µM. Regarding `Cc1ncc(Oc2ccc(C(=O)NS(C)(=O)=O)cc2C(F)(F)F)cn1` [Example L61, 4-[(2-methylpyrimidin-5-yl)oxy]-N-(methylsulfonyl)-3-(trifluoromethyl)benzamide], in assay [2], the IC50 came to 100 µM.

With `COc1c(C(=O)NS(C)(=O)=O)ccc(Oc2cnc(N3CCCCC3)nc2)c1F` [Example L62, 3-fluoro-2-methoxy-N-(methylsulfonyl)-4-[(2-piperidin-1-ylpyrimidin-5-yl)oxy]benzamide], in assay [2], the IC50 is 57.4 µM. `CS(=O)(=O)NC(=O)c1ccc(Oc2cncnc2)c(Cl)c1` [Example L64, 3-chloro-N-(methylsulfonyl)-4-(pyrimidin-5-yloxy)benzamide]: the IC50 in assay [2] is greater than 323 µM.
